Measurements published in patent publication EP1203770A1 (priority 1992, dated 1994).

Target: T1, HIV-1 protease (Human immunodeficiency virus type 1 group M subtype B, UniProt P04585)
T1 construct: The protease (or proteinase), consisting of only 99 amino acids, is among the smallest enzymes known
Experiment: In vitro HIV protease inhibitory assay (HIV Protease FITC Assay)
Format: biochemical
Details: for inhibition at 0.123 µM: HIV-1 Dose 0.123 uM; for inhibition at 0.123 µM / inhibition at 0.37 µM / inhibition at 1.1 µM / inhibition at 3.3 µM / inhibition at 10 µM / inhibition at 30 µM / inhibition at 100 µM: read-out: HIV-1 Protease % Inhib; for inhibition at 0.37 µM: HIV-1 Dose 0.370 uM; for inhibition at 1.1 µM: HIV-1 Dose 1.100 uM; for inhibition at 3.3 µM: HIV-1 Dose 3.300 uM; for inhibition at 10 µM: HIV-1 Dose 10.000 uM; for inhibition at 30 µM: HIV-1 Dose 30.000 uM; for inhibition at 100 µM: HIV-1 Dose 100.000 uM; for Ki: read-out: HIV-1 FITC Ki
Summary of the method: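 Biotin/FITC-labelled peptide substrate cleaved by HIV-1 protease for 1 h at room temperature in the dark, in 0.1 M sodium acetate pH 5.5, 1.0 M NaCl, 0.05% NP-40. Uncleaved substrate captured on avidin beads and separated by filtration; fluorescence gave % inhibition.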

| SMILES | inhibition at 0.123 µM [%] | inhibition at 0.37 µM [%] | inhibition at 1.1 µM [%] | inhibition at 3.3 µM [%] | inhibition at 10 µM [%] | inhibition at 30 µM [%] | inhibition at 100 µM [%] | Ki [nM] |
| --- | --- | --- | --- | --- | --- | --- | --- | --- |
| O=c1oc(CC(O)c2ccccc2Cl)cc(O)c1C(c1ccccc1)C1CC1 (stereo not drawn) [Example 151, 3-(α-cyclopropylbenzyl)-4-hydroxy-6-(β-hydroxy-o-chlorophenethyl)-2H-pyran-2-one] | < 10 | < 10 | 19.1 | 39.8 | 70.1 | 88.4 | 113 | – |
| O=c1oc(CC(O)c2ccoc2)cc(O)c1C(c1ccccc1)C1CC1 (stereo not drawn) [Example 152, 3-(α-cyclopropylbenzyl)-4-hydroxy-6-(2-(furan-3-yl)-2-hydroxyethyl)-2H-pyran-2-one] | < 10 | < 10 | 26.4 | 48.8 | 77.6 | 90.5 | 110 | – |
| O=c1oc(CC(O)c2ccsc2)cc(O)c1C(c1ccccc1)C1CC1 (stereo not drawn) [Example 153, 3-(α-cyclopropylbenzyl)-4-hydroxy-6-(2-(thiophen-3-yl)-2-hydroxyethyl)-2H-pyran-2-one] | < 10 | 17.7 | 40.3 | 69 | 88.6 | 99.7 | 120 | – |
| CCC(Cc1ccc(F)cc1)c1cc(O)c(C(c2ccccc2)C2CC2)c(=O)o1 (stereo not drawn) [Example 154, 3-(α-cyclopropylbenzyl)-4-hydroxy-6-(α-ethyl-p-flurorphenethyl)-2H-pyran-2-one] | 21.9 | 57.3 | 84.1 | 86.7 | 98.1 | 92.9 | – | 39 |
| CCC(Cc1ccc(Cl)cc1)c1cc(O)c(C(c2ccccc2)C2CC2)c(=O)o1 (stereo not drawn) [Example 155, 3-(α-cyclopropylbenzyl)-4-hydroxy-6-(α-ethyl-p-chlorophenethyl)-2H-pyran-2-one] | 27.6 | 46 | 79.9 | 92.8 | 97.2 | 93.5 | 111 | 66 |
| CCC(Cc1cccc(Cl)c1)c1cc(O)c(C(c2ccccc2)C2CC2)c(=O)o1 (stereo not drawn) [Example 156, 3-(α-cyclopropylbenzyl)-4-hydroxy-6-(α-ethyl-m-chlorophenethyl)-2H-pyran-2-one] | < 10 | 24.2 | 64.4 | 82.6 | 87.3 | 92.3 | – | 65 |
| CCC(Cc1ccccc1Cl)c1cc(O)c(C(c2ccccc2)C2CC2)c(=O)o1 (stereo not drawn) [Example 157, 3-(α-cyclopropylbenzyl)-4-hydroxy-6-(α-ethyl-o-chlorophenethyl)-2H-pyran-2-one] | < 10 | 17.6 | 42.2 | 69 | 83.5 | 84.9 | – | – |
| CCC(Cc1ccc(Br)cc1)c1cc(O)c(C(c2ccccc2)C2CC2)c(=O)o1 (stereo not drawn) [Example 158, 3-(α-cyclopropylbenzyl)-4-hydroxy-6-(α-ethyl-p-bromophenethyl)-2H-pyran-2-one] | 15.7 | 44.2 | 70.5 | 87 | 100 | 96.1 | 115 | 55 |
| CCC(Cc1cccc(Br)c1)c1cc(O)c(C(c2ccccc2)C2CC2)c(=O)o1 (stereo not drawn) [Example 159, 3-(α-cyclopropylbenzyl)-4-hydroxy-6-(α-ethyl-m-bromophenethyl)-2H-pyran-2-one] | < 10 | 20.6 | 56.4 | 76.2 | 92.3 | 95.1 | – | 207 |
| CCC(Cc1ccc(C(F)(F)F)cc1)c1cc(O)c(C(c2ccccc2)C2CC2)c(=O)o1 (stereo not drawn) [Example 160, 3-(α-cyclopropylbenzyl)-4-hydroxy-6-(α-ethyl-p-triflurormethylphenethyl)-2H-pyran-2-one] | < 10 | 12.2 | 39.4 | 78.2 | 89.7 | 92.1 | – | – |
| CCC(Cc1cccc(C(F)(F)F)c1)c1cc(O)c(C(c2ccccc2)C2CC2)c(=O)o1 (stereo not drawn) [Example 161, 3-(α-cyclopropylbenzyl)-4-hydroxy-6-(α-ethyl-m-triflurormethylphenethyl)-2H-pyran-2-one] | < 10 | < 10 | 41.8 | 78 | 96.5 | 105 | – | – |
| CCC(Cc1ccccc1C(F)(F)F)c1cc(O)c(C(c2ccccc2)C2CC2)c(=O)o1 (stereo not drawn) [Example 162, 3-(α-cyclopropylbenzyl)-4-hydroxy-6-(α-ethyl-o-triflurormethylphenethyl)-2H-pyran-2-one] | < 10 | < 10 | < 10 | 34.4 | 52 | 72.3 | – | – |
| CCC(Cc1ccc(OC)cc1)c1cc(O)c(C(c2ccccc2)C2CC2)c(=O)o1 (stereo not drawn) [Example 163, 3-(α-cyclopropylbenzyl)-4-hydroxy-6-(α-ethyl-p-methoxyphenethyl)-2H-pyran-2-one] | < 10 | 30.8 | 65.6 | 88.7 | 101 | 98.4 | – | 172 |
| CCC(Cc1cccc(OC)c1)c1cc(O)c(C(c2ccccc2)C2CC2)c(=O)o1 (stereo not drawn) [Example 164, 3-(α-cyclopropylbenzyl)-4-hydroxy-6-(α-ethyl-m-methoxyphenethyl)-2H-pyran-2-one] | < 10 | 16.5 | 50 | 68.8 | 84.8 | 88.2 | – | 185 |
| O=c1oc(CCc2ccc(F)cc2)cc(O)c1C(c1ccccc1)C1CC1 (stereo not drawn) [Example 165, 3-(α-cyclopropylbenzyl)-4-hydroxy-6-(p-fluorophenethyl)-2H-pyran-2-one] | < 10 | 10.5 | 32.9 | 60 | 80.7 | 94.1 | – | – |
| O=c1oc(CCc2ccc(Cl)cc2)cc(O)c1C(c1ccccc1)C1CC1 (stereo not drawn) [Example 166, 3-(α-cyclopropylbenzyl)-4-hydroxy-6-(p-chlorophenethyl)-2H-pyran-2-one] | < 10 | < 10 | < 10 | 39.8 | 62.3 | 80.9 | 97.8 | – |
| O=c1oc(CCc2ccc(Br)cc2)cc(O)c1C(c1ccccc1)C1CC1 (stereo not drawn) [Example 167, 3-(α-cyclopropylbenzyl)-4-hydroxy-6-(p-bromophenethyl)-2H-pyran-2-one] | < 10 | < 10 | 18.4 | 37.1 | 60.4 | 81.1 | – | – |
